Assay type in all cases: organism-based
Data set [1] has as its system Homo sapiens. In words: Toxicity in sphenoid sinus human patient assessed as occurrence of erythema multiforme treatment increased upto 300 mg, po QID by biopsy hostopathological analysis. Conditions: in vivo.
Data set [2] relates to Homo sapiens. In words: Toxicity in sphenoid sinus human patient assessed as recurrence of the cutaneous reaction treatment increased upto 500 mg, iv BID for 8 weeks. Conditions: in vivo, 1344 h.
In data set [3] the test system is Homo sapiens. Description: Toxicity in sphenoid sinus human patient assessed as cutaneous reaction treatment increased upto 300 mg, iv QID for 8 weeks measured after 2 weeks of treatment discontinuation. Conditions: in vivo.
The test system of data set [4] is Homo sapiens. In words: Toxicity in sphenoid sinus human patient assessed as occurrence of cutaneous reaction with red striae treatment increased upto 300 mg, po QID by biopsy hostopathological analysis. To be noted: in vivo.
For data set [5], the system named is Homo sapiens. In words: Toxicity in sphenoid sinus human patient assessed as occurrence of superficial edema treatment increased upto 300 mg, po QID by biopsy hostopathological analysis. Conditions: in vivo.
Data set [6] relates to Homo sapiens. Description: Toxicity in sphenoid sinus human patient assessed as apoptotic or necrotizing keratinocytes treatment increased upto 300 mg, po QID. To be noted: in vivo.
Data set [7] deals with Homo sapiens. Description: Toxicity in sphenoid sinus human patient assessed as occurrence of pseudoporphyria treatment increased upto 300 mg, po QID by biopsy hostopathological analysis. Conditions: in vivo.
In data set [8] the test system is Homo sapiens. In words: Toxicity in sphenoid sinus human patient assessed as occurrence of epidermolysis bullosa acquisita treatment increased upto 300 mg, po QID by biopsy hostopathological analysis. To be noted: in vivo.
Data set [9] deals with Homo sapiens. In words: Toxicity in sphenoid sinus human patient assessed as occurrence of extended interface dermatitis with vacuolar alteration of the basilar epidermis treatment increased upto 300 mg, po QID by biopsy hostopathological analysis. To be noted: in vivo.
Data set [10] concerns Homo sapiens. In words: Toxicity in sphenoid sinus human patient assessed as increase in liver enzyme level treatment increased upto 300 mg, iv QID relative to control. Conditions: in vivo.
In data set [11] the test system is Homo sapiens. Description: Toxicity in sphenoid sinus human patient assessed as desensitization to several types of adverse reactions at 500 mg, iv BID after 8 weeks. Conditions: in vivo, 1344 h.
The subject of data set [12] is Homo sapiens. In words: Toxicity in sphenoid sinus human patient assessed as mild elevations in liver enzyme level treatment increased upto 500 mg, iv BID for 8 weeks. Conditions: in vivo, 1344 h.
Data set [13] concerns Homo sapiens. Description: Toxicity in sphenoid sinus human patient assessed as increase in liver enzyme level treatment increased upto 300 mg, iv QID for 8 weeks measured after 2 weeks of treatment discontinuation. To be noted: in vivo.
The test system of data set [14] is Homo sapiens. In words: Toxicity in sphenoid sinus human patient assessed as inflammatory infiltration treatment increased upto 300 mg, po QID by biopsy hostopathological analysis. Conditions: in vivo.

For `C[C@@H](c1ncncc1F)[C@](O)(Cn1cncn1)c1ccc(F)cc1F` [VORICONAZOLE], the Activity entry in the data set on Homo sapiens [1] is on record as “Toxic”; in the data set with Homo sapiens [2], “Non-toxic”; in the data set with Homo sapiens [3], “Non-toxic”; with Homo sapiens [4], “Toxic”; in the data set with Homo sapiens [5], “Toxic”; in the data set on Homo sapiens [6] it was “Non-toxic”. Also, the Activity result with Homo sapiens [7] was “Toxic”; with Homo sapiens [8], “Toxic”; with Homo sapiens [9], “Toxic”; in the data set on Homo sapiens [10] it was “Toxic”; in the data set on Homo sapiens [11], “Non-toxic”; in the data set with Homo sapiens [12] it was “Toxic”. Besides, the Activity entry in the data set on Homo sapiens [13] and in the data set with Homo sapiens [14] was “Non-toxic” throughout.
